For three molecules, Km results are on record in article PMC6193120, “Substrate Specificity Analysis of Dihydrofolate/Dihydromethanopterin Reductase Homologs in Methylotrophic α-Proteobacteria” (Frontiers in Microbiology, 2018).

Broadly, the Km is the substrate concentration at which the rate is half of its maximum.

Series [1] has as its system T1, Hni-DAGK-H6.
T1 construct: gene dmrA
The series is described as follows: NADPH oxidation at […] nm, anaerobic. The series is classed as biochemical, Hyphomicrobium nitrativorans. To be noted: 0.1 mM NADPH, pH 5.3, sodium acetate; H2SPT from partially oxidized Methanosarcina thermophila H4SPT fraction; read-out: KM(app).

For series [2], the target named is T2, M. extorquens AM1 DmrA-H4 (Methylorubrum extorquens, UniProt C5B2R8).
T2 sequence (C5B2R8 1-135): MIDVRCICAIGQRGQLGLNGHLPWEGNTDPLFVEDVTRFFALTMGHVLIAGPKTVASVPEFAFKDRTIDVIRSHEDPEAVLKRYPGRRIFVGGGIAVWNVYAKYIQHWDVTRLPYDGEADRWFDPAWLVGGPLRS
The series is described as follows: NADPH oxidation at […] nm, anaerobic. The class given is biochemical. Particulars: 0.1 mM NADPH, pH 5.3, sodium acetate; H2SPT from partially oxidized Methanosarcina thermophila H4SPT fraction; read-out: KM(app).

In series [3] the test system is T3, Mno-DAGK-H6.
T3 construct: gene dmrA
The series is described as follows: NADPH oxidation at […] nm, anaerobic. Particulars: 0.1 mM NADPH, pH 5.3, sodium acetate; H2SPT from partially oxidized Methanosarcina thermophila H4SPT fraction; read-out: KM(app). The series is classed as biochemical, Methylobacterium nodulans.

Substrate in series [4]: Nc1nc2c(c(=O)[nH]1)N=C(CNc1ccc(C(=O)N[C@@H](CCC(=O)O)C(=O)O)cc1)CN2
In words: purified protein. The series is classed as biochemical, Methylorubrum extorquens. Particulars: 100 μM NADPH, pH 6.8, room temperature.

For the molecule dihydrosarcinapterin, the Km in series [1] is 102 ± 73 µM; in series [2], 193 ± 71 µM; in series [3] it was 695 ± 176 µM.

B1: H6-DfrB (Methylorubrum extorquens) (protein)
chain: MDVRLIAAIGRRGQLGLEGDMPWGRSFPDDLRRFRELTAGGIVLVGWRTWPTVERLQGTHGRRFVVDDVKLPPTGMLVRLQEPDASGTRDRPVWIAGGAKTYARYARFVDEFVVRRVPYDGPADTWMPDLLGTPEADRTDGPYTGRSPTDKQWRPGCRRLRDR
notes: megaplasmid-encoded
Turning to B1, the Km in series [4] amounted to 18 ± 8.9 µM.

B2: H6-DfrA (Methylorubrum extorquens) (protein)
chain: MAQPRISLVAAIARNGVIGRDNSLAWRLSSDLKRFKALTMGKPILMGRKTWDSIGRPLPGRRSLVITRDRSLALSDVTVVHDWDEALAAAGDDELMVVGGAEIYRLALPHADRLHLTEVDAAPEGDAYFPPFDRSLFRETLREAHGPGERDEFAFQFVDLERLGSR
Take B2: the Km in series [4] is 14 ± 3.0 µM.
